One assay deals with rumen fluid. The assay can be described thus: In vitro incubation of buffered rumen fluid: volatile fatty acids, methane inhibition and hydrogen. It counts as cell-based, sheep. The note with it: 20 h; for % hydrogen present: headspace gas; for Molar % VFA Acetate / Molar % VFA Butyrate / Molar % VFA Propionate / TVFA: sheep rumen fluid. The protocol: The compounds were tested for their ability to reduce or inhibit methane production and to enhance propionate formation. The method used is as follows:
The screening system is in vitro incubation of buffered rumen fluid with, or without, the addition of the test compound.
Rumen fluid is removed by suction from two rumen-fistulated sheep, just before feeding. The fluid is strained and mixed. The incubation is for twenty hours in a shaking water-bath at 39° C. Each incubation flask contains: 30 ml McDougall's bicarbonate buffer-pH 6.7-6.9, 10 ml strained rumen fluid, 200 mg substrate (the substrate is a ground sample of the diet on which the sheep has been fed) and 1 ml 10% aqueous ethanol containing 0.2% Tween 80 and the compound under examination. Samples are taken at the end of the incubation period for analysis of headspace gases and volatile fatty acids, by g.l.c. […]

Another assay concerns methanogenesis. The assay can be described thus: In vivo "gas collection screen" in sheep (respirometer): methanogenesis and hydrogen evolution. The note with it: sheep 50 kg, in diet, 75 mg/day, 5 week period. How it is done:
In vivo Studies in a "gas collection screen":
A Group of 4, 50 kg Sheep were fed diets containing the compound of Example 6 over 5 week period. A different sheep from each group was put into a respirometer for 24 hours each day. Each sheep was thus monitored once in every […]. Gas flow was maintained by a peristatic pump and measured using a commercial gas meter and a sub-sample collected in a butyl-rubber inner tube. Gas analysis was carried out by gas chromatograph using a R/E 204 gas chromatograph with both electron capture and […] detectors.
During a run-in control period it was found the sheep produced 19.2±0.4 liters methane/day and not more than 1.5 liters Hydrogen/day.
The compounds were stable in the feed over the period of the study. By feeding measured amounts to the sheep (no refusals) it was possible to "dose" each sheep with 75 mg/day.

Setting [1] is: Ovis aries, read-out: VFA production % difference from control, Acetate.
[2] abbreviates: Ovis aries, read-out: VFA production % difference from control, Butyrate.
Where [3] appears, read: Ovis aries, read-out: VFA production % difference from control, Propionate.
Where [4] appears, read: Ovis aries, read-out: VFA production % difference from control, TVFA.
Where [5] appears, read: Ovis aries, 10 ppm/flask, 39° C.

For orientation: inhibition means the percentage by which the read-out fell short of the control.

Read-outs that look alike come from different tables or passages of the source.

Take `CN1CCN(CC(O)C(Cl)(Cl)Cl)CC1` (stereo not drawn) [Compound A, reference compound]: in the assay on rumen fluid (10 ppm/flask, 39° C), the “% hydrogen present” value is reported as 0.062%, the “Molar % VFA Acetate” value came to 65.3%, the “Molar % VFA Butyrate” value was determined as 9.13% and the “Molar % VFA Propionate” value is on record as 21.9%. In the assay with rumen fluid (10 ppm/flask, 39° C), this compound displayed a TVFA of 56.7 μM/ml. In the assay with rumen fluid (setting [1]), the percent change in VFA production versus control at 10 ppm was -35%. Further, in the assay on rumen fluid (setting [2]), the percent change in VFA production versus control at 10 ppm came to 9%. Besides, in the assay on rumen fluid (setting [3]), the percent change in VFA production versus control at 10 ppm worked out at 19.9%. Further, the percent change in VFA production versus control at 10 ppm with rumen fluid (setting [4]) was -22.6%. The compound also had an inhibition at 10 ppm in the assay with rumen fluid (setting [5]) of 50.6%.
Consider `CNCC(O)C(Cl)(Cl)Cl` (stereo not drawn) [Example 1, 1,1,1-Trichloro-3-methylaminopropan-2-ol], for which, in the assay on rumen fluid (10 ppm/flask, 39° C), the “% hydrogen present” value amounted to 1.43%, the “Molar % VFA Acetate” value is 55.3%, the “Molar % VFA Butyrate” value is listed as 12.1% and the “Molar % VFA Propionate” value is on record as 30.4%. Also, the TVFA with rumen fluid (10 ppm/flask, 39° C) is listed as 40.6 μM/ml. Further, in the assay on rumen fluid (setting [1]), the percent change in VFA production versus control at 10 ppm is -44.7%. In addition, in the assay on rumen fluid (setting [2]), the percent change in VFA production versus control at 10 ppm is -29.7%. In the assay on rumen fluid (setting [3]), the percent change in VFA production versus control at 10 ppm amounted to 22.3%. Further, in the assay with rumen fluid (setting [4]), the percent change in VFA production versus control at 10 ppm is -28.2%. The same compound showed an inhibition at 10 ppm with rumen fluid (setting [5]) of 100%.
Take `CN(C)CC(O)C(Cl)(Cl)Cl` (stereo not drawn) [Example 2, 1,1,1-Trichloro-3-dimethylaminopropan-2-ol]: in the assay on rumen fluid (10 ppm/flask, 39° C), the “% hydrogen present” value was 1.61%, the “Molar % VFA Acetate” value is recorded as 55.6%, the “Molar % VFA Butyrate” value is given as 12.2% and the “Molar % VFA Propionate” value is reported as 29.7%. Besides, the TVFA with rumen fluid (10 ppm/flask, 39° C) came to 43.9 μM/ml. The percent change in VFA production versus control at 10 ppm with rumen fluid (setting [1]) is -35.5%. Besides, in the assay on rumen fluid (setting [2]), the percent change in VFA production versus control at 10 ppm is -18.1%. The percent change in VFA production versus control at 10 ppm with rumen fluid (setting [3]) came out at 31.5%. In the assay on rumen fluid (setting [4]), the percent change in VFA production versus control at 10 ppm is -18.4%. Also, the inhibition at 10 ppm with rumen fluid (setting [5]) is 100%.
With `CCN(CC)CC(O)C(Cl)(Cl)Cl` (stereo not drawn) [Example 3, 1,1,1-Trichloro-3-diethylaminopropan-2-ol], in the assay on rumen fluid (10 ppm/flask, 39° C), the “% hydrogen present” value turned out to be 1.27%, the “Molar % VFA Acetate” value worked out at 54.2%, the “Molar % VFA Butyrate” value came out at 12.4% and the “Molar % VFA Propionate” value came to 30.0%. Moreover, the TVFA in the assay with rumen fluid (10 ppm/flask, 39° C) is reported as 43.3 μM/ml. In addition, the percent change in VFA production versus control at 10 ppm in the assay on rumen fluid (setting [1]) is -42.3%. In the assay on rumen fluid (setting [2]), the percent change in VFA production versus control at 10 ppm is -20%. For the same compound, the percent change in VFA production versus control at 10 ppm with rumen fluid (setting [3]) was 26.8%. The percent change in VFA production versus control at 10 ppm in the assay on rumen fluid (setting [4]) is -23%. Also, in the assay on rumen fluid (setting [5]), testing at 10 ppm gave an inhibition of 100%.
For `CC(C)CNCC(O)C(Cl)(Cl)Cl` (stereo not drawn) [Example 4, 1,1,1-Trichloro-3-isobutylaminopropan-2-ol], in the assay on rumen fluid (10 ppm/flask, 39° C), the “% hydrogen present” value is 1.07%, the “Molar % VFA Acetate” value is 55.3%, the “Molar % VFA Butyrate” value stood at 12.3% and the “Molar % VFA Propionate” value was found to be 30.0%. The same compound yielded a TVFA in the assay on rumen fluid (10 ppm/flask, 39° C) of 40.1 μM/ml. For the same compound, the percent change in VFA production versus control at 10 ppm in the assay on rumen fluid (setting [1]) was -45.7%. Further, in the assay on rumen fluid (setting [2]), the percent change in VFA production versus control at 10 ppm is -29%. In addition, in the assay with rumen fluid (setting [3]), the percent change in VFA production versus control at 10 ppm stood at 18.8%. Moreover, the percent change in VFA production versus control at 10 ppm in the assay with rumen fluid (setting [4]) is -29.4%. In the assay with rumen fluid (setting [5]), this compound displayed an inhibition at 10 ppm of 100%.
As for `OC(CNC1CCCCC1)C(Cl)(Cl)Cl` (stereo not drawn) [Example 5, 1,1,1-Trichloro-3-cyclohexylaminopropan-2-ol], in the assay with rumen fluid (10 ppm/flask, 39° C), the “% hydrogen present” value is 1.01%, the “Molar % VFA Acetate” value stood at 56.7%, the “Molar % VFA Butyrate” value was found to be 10.21% and the “Molar % VFA Propionate” value is 31.1%. The same compound displayed a TVFA with rumen fluid (10 ppm/flask, 39° C) of 44.2 μM/ml. For the same compound, the percent change in VFA production versus control at 10 ppm with rumen fluid (setting [1]) is -31.1%. Besides, in the assay on rumen fluid (setting [2]), the percent change in VFA production versus control at 10 ppm is 14.6%. In addition, the percent change in VFA production versus control at 10 ppm in the assay on rumen fluid (setting [3]) was 32.5%. In the assay on rumen fluid (setting [4]), the percent change in VFA production versus control at 10 ppm was -11.8%. Also, 10 ppm produced 100% inhibition in the assay with rumen fluid (setting [5]).
In the case of `OC(CN1CCCCC1)C(Cl)(Cl)Cl` (stereo not drawn) [Example 6, 1,1,1-Trichloro-3-(N-piperidino)propan-2-ol], in the assay on rumen fluid (10 ppm/flask, 39° C), the “% hydrogen present” value is on record as 1.34%, the “Molar % VFA Acetate” value stood at 57.7%, the “Molar % VFA Butyrate” value stood at 9.64% and the “Molar % VFA Propionate” value came out at 30.7%. This compound registered a TVFA in the assay on rumen fluid (10 ppm/flask, 39° C) of 45.3 μM/ml. In the assay on rumen fluid (setting [1]), the percent change in VFA production versus control at 5 µg/mL was -19.1% and the percent change in VFA production versus control at 10 ppm was -25.8%. Besides, in the assay with rumen fluid (setting [2]), the percent change in VFA production versus control at 5 µg/mL was 27.7% and the percent change in VFA production versus control at 10 ppm turned out to be 7.9%. In addition, in the assay on rumen fluid (setting [3]), the percent change in VFA production versus control at 5 µg/mL stood at 23% and the percent change in VFA production versus control at 10 ppm was 34.1%. Moreover, in the assay with rumen fluid (setting [4]), the percent change in VFA production versus control at 5 µg/mL was -7.1% and the percent change in VFA production versus control at 10 ppm was -8.3%. The same compound registered an inhibition at 10 ppm in the assay with rumen fluid (setting [5]) of 100%. This compound also returned an inhibition at 5 µg/mL in the assay with rumen fluid (Ovis aries, tested at 5 ppm level, 39° C) of 32.2%. Further, the “% hydrogen present” value with rumen fluid (tested at 5 ppm level, 39° C) was 0.09%. Besides, in the assay on methanogenesis, the “% inhibition of methanogenesis” value came to 9.1% and the Hydrogen evolution was 2.1 liters/24h.
In the case of `OC(CN1CCCC1)C(Cl)(Cl)Cl` (stereo not drawn) [Example 7, 1,1,1-Trichloro-3-(N-pyrrolidino)propan-2-ol], in the assay with rumen fluid (10 ppm/flask, 39° C), the “% hydrogen present” value was determined as 1.18%, the “Molar % VFA Acetate” value stood at 57.7%, the “Molar % VFA Butyrate” value is on record as 9.67% and the “Molar % VFA Propionate” value stood at 30.5%. The compound also registered a TVFA in the assay on rumen fluid (10 ppm/flask, 39° C) of 44.6 μM/ml. The percent change in VFA production versus control at 10 ppm in the assay on rumen fluid (setting [1]) was -27.6%. The percent change in VFA production versus control at 10 ppm in the assay on rumen fluid (setting [3]) was 30.5%. Also, in the assay on rumen fluid (setting [4]), the percent change in VFA production versus control at 10 ppm was -10.4%. The compound also had an inhibition at 10 ppm in the assay with rumen fluid (setting [5]) of 100%.

Values taken from patent US4321271A, “Heterocyclic and aliphatic growth promotors” (Beecham Group Limited, priority 1979, dated 1982).
